{"source": "paper PMC9539280", "about": "(Advanced Science, 2022)", "key": {"[1]": {"system": "hCMs (human pluripotent stem cell-derived cardiomyocytes)", "experiment": "Cytotoxicity assay, calcein-AM/PI double staining, relative cell viability", "type": "cell-based", "settings": "6 days, escalating concentrations (0.03-3 or 1-30 × 10^−6 M), calcein-AM/PI", "protocol": "hCMs were dissociated with 0.25% trypsin/EDTA (25200072, Gibco) and then seeded into 384‐well plates at the density of 8 × 10^3 cells per well. 24 h after seeding, cells were exposed to the drugs at the indicated concentrations for 6 days. Culture media were fully changed every 3 days with new drug supplementation. After drug treatment, cells were stained with calcein‐AM/PI/Hoechst for 20 min using calcein‐AM/PI double staining kit (C542, DOJINDO). Images were captured by the Operetta CLS High‐Content Analysis System (PerkinElmer). Number of live cells (calcein‐AM+/PI‐) and dead cells (PI+) was quantified by using the Harmony 4.9 software (PerkinElmer). Number of live cells was used to calculate the “relative cell viability” as follows (1) relarivecellviability=numberoflivecellsineachtreatment/numberoflivecellsinDMSOcontrol×100%"}, "[2]": {"system": "hCMs"}, "[3]": {"system": "hCMs", "remark": "listed apart in the source"}, "[4]": {"system": "hCMs", "remark": "listed apart in the source"}, "[5]": {"system": "hCMs", "remark": "listed apart in the source"}, "[6]": {"system": "hEHTs (human engineered heart tissues)"}, "[7]": {"system": "hEHTs (human engineered heart tissues)", "remark": "listed apart in the source"}, "[8]": {"settings": "in vivo; cited from earlier work"}}}
{"smiles": "Cc1cccc(/C=N/Nc2cc(N3CCOCC3)nc(OCCc3ccccn3)n2)c1", "note": "[Apilimod, apilimod]", "values": [{"measurement": "cell viability of hCMs", "setting": "[1]", "value": "dose‐dependent decrease"}, {"measurement": "apoptosis of hCMs (TUNEL)", "setting": "[2]", "value": "increased apoptosis"}, {"measurement": "sarcomere organization of hCMs", "setting": "[3]", "value": "sarcomeric disarray"}, {"measurement": "calcium transient amplitude", "setting": "[4]", "value": "without apparently affecting"}, {"measurement": "time to 50% decay of the calcium transients", "setting": "[4]", "value": "increased"}, {"measurement": "time to peak of the calcium transients", "setting": "[4]", "value": "increased"}, {"measurement": "intracellular calcium handling properties of hCMs", "setting": "[5]", "value": "impair"}, {"measurement": "toxicity to hEHTs", "setting": "[6]", "value": "toxic to hEHTs"}, {"measurement": "abnormal beating of hEHTs (spontaneous contractility)", "setting": "[7]", "value": "more severe"}, {"measurement": "contractile force of hEHTs", "setting": "[7]", "value": "much lower"}, {"measurement": "hEHT function (tissue level cardiotoxicity)", "setting": "[7]", "value": "weaken hEHT function"}, {"measurement": "passive force of hEHTs", "setting": "[7]", "value": "increases of the passive force"}, {"measurement": "Cmax", "setting": "[8]", "value": 270, "unit": "nM"}]}
